According to ChEMBL document CHEMBL1177756, “Design and synthesis of 1,4,5,6-tetrahydropyrrolo[3,4-c]pyrazoles and pyrazolo[3,4-b]pyridines for Aurora-A kinase inhibitors” (Bioorg Med Chem Lett, 2010):

How the values were obtained:
Format in all cases: functional, cell-based
[1] = tested on: A2780; experiment: Cytotoxicity against human A2780 cells after 48 hrs by MTT assay; settings: A2780, 48 h
[2] = tested on: HCT-116; experiment: Cytotoxicity against human HCT116 cells after 48 hrs by MTT assay; settings: HCT-116, 48 h
[3] = tested on: A549; experiment: Cytotoxicity against human A549 cells after 48 hrs by MTT assay; settings: A549, 48 h

Structure (SMILES)	IC50 [1]	IC50 [2]	IC50 [3]
CO[C@H](C(=O)N1Cc2[nH]nc(NC(=O)c3ccc4c(c3)OCO4)c2C1)c1ccccc1	> 200 µM	> 200 µM	> 200 µM
O=C(Nc1n[nH]c2ncc(Br)cc12)c1ccccn1	46.5 µM	14.3 µM	45.2 µM
Cc1ccc(C(=O)N2Cc3[nH]nc(NC(=O)c4ccco4)c3C2)cc1	> 200 µM	> 200 µM	> 200 µM
COc1cc(OC)cc(C(=O)Nc2n[nH]c3c2CN(C(=O)[C@@H](OC)c2ccccc2)C3)c1	> 200 µM	103 µM	99 µM
COc1ccccc1C(=O)Nc1n[nH]c2ncc(Br)cc12	27 µM	15.6 µM	> 200 µM
CC(=O)c1ncccc1N1Cc2[nH]nc(NC(=O)c3ccc4c(c3)OCO4)c2C1	> 200 µM	> 200 µM	> 200 µM
O=C(Nc1n[nH]c2ncc(Br)cc12)c1ccccc1C(F)(F)F	> 200 µM	40.3 µM	75.1 µM
COc1cc(OC)cc(C(=O)Nc2n[nH]c3c2CN(C(=O)[C@@H](O)c2ccccc2)C3)c1	> 200 µM	143 µM	76 µM
O=C(Nc1n[nH]c2ncc(Br)cc12)c1ccccc1Cl	46.7 µM	32.3 µM	> 200 µM
COc1cc(OC)cc(C(=O)Nc2n[nH]c3ncc(Br)cc23)c1	37.9 µM	19.3 µM	53.7 µM
CO[C@H](C(=O)N1Cc2[nH]nc(NC(=O)c3ccc4ccccc4c3)c2C1)c1ccccc1	23 µM	38 µM	16 µM
O=C(Nc1n[nH]c2c1CN(C(=O)[C@@H](O)c1ccccc1)C2)c1ccc2c(c1)OCO2	> 200 µM	135 µM	84 µM
O=C(Nc1n[nH]c2c1CN(C(=O)c1ccccn1)C2)c1ccc2c(c1)OCO2	> 200 µM	> 200 µM	118 µM
CC(=O)O[C@H](C(=O)N1Cc2[nH]nc(NC(=O)c3cc4c(c(OCc5ccccc5)c3)OCO4)c2C1)c1ccccc1	> 200 µM	> 200 µM	> 200 µM
Cc1ccc(C(=O)Nc2n[nH]c3c2CN(C(=O)c2ccccn2)C3)cc1	> 200 µM	> 200 µM	> 200 µM
Cc1cccnc1C(=O)Nc1n[nH]c2ncc(Br)cc12	> 200 µM	23 µM	> 200 µM
O=C(Nc1n[nH]c2ncc(Br)cc12)c1ccc(C(F)(F)F)cc1	> 200 µM	21.9 µM	> 200 µM
O=C(Nc1n[nH]c2c1CN(C(=O)c1ccco1)C2)c1ccc2ccccc2c1	54 µM	45 µM	34 µM
CO[C@H](C(=O)N1Cc2[nH]nc(NC(=O)c3ccco3)c2C1)c1ccccc1	> 200 µM	> 200 µM	> 200 µM
O=C(Nc1n[nH]c2c1CN(C(=O)c1ccccn1)C2)c1cc2c(c(OCc3ccccc3)c1)OCO2	> 200 µM	104 µM	> 200 µM
COc1ccc(C(=O)Nc2n[nH]c3c2CN(C(=O)[C@@H](OC)c2ccccc2)C3)cc1	> 200 µM	207 µM	72 µM

Structure (SMILES)	IC50 [1]	IC50 [2]	IC50 [3]
O=C(Nc1n[nH]c2ncc(Br)cc12)c1ccc(Cl)cc1	51.6 µM	34.7 µM	51.4 µM
Cc1ccc(C(=O)N2Cc3[nH]nc(NC(=O)c4ccc5ccccc5c4)c3C2)cc1	> 200 µM	> 200 µM	> 200 µM
CO[C@H](C(=O)N1Cc2[nH]nc(NC(=O)c3ccccc3)c2C1)c1ccccc1	> 200 µM	26 µM	> 200 µM
CC(=O)N1Cc2[nH]nc(NC(=O)c3ccc4ccccc4c3)c2C1	> 200 µM	> 200 µM	> 200 µM
O=C(Cc1ccc(Br)cc1)Nc1n[nH]c2ncc(Br)cc12	22.8 µM	31.7 µM	43.1 µM
COc1cc(OC)cc(C(=O)Nc2n[nH]c3c2CN(C(=O)c2ccccn2)C3)c1	> 200 µM	236 µM	> 200 µM
CO[C@H](C(=O)N1Cc2[nH]nc(NC(=O)c3ccc(N4CCN(C)CC4)cc3)c2C1)c1ccccc1	11 µM	13 µM	43 µM
Cc1ccccc1C(=O)Nc1n[nH]c2ncc(Br)cc12	> 200 µM	51.5 µM	> 200 µM
CC(=O)c1ncccc1N1Cc2[nH]nc(NC(=O)c3ccccc3)c2C1	> 200 µM	168 µM	175 µM
O=C(Nc1n[nH]c2ncc(Br)cc12)c1cc(Cl)cc(Cl)c1	> 200 µM	49.2 µM	> 200 µM
COc1ccc(C(=O)Nc2n[nH]c3ncc(Br)cc23)cc1	> 200 µM	24.9 µM	> 200 µM
Cc1cccc(C(=O)Nc2n[nH]c3ncc(Br)cc23)c1	49.9 µM	25.5 µM	> 200 µM
O=C(Nc1n[nH]c2c1CN(C(=O)[C@@H](O)c1ccccc1)C2)c1ccco1	35 µM	4 µM	25 µM
COc1ccc(C(=O)Nc2n[nH]c3c2CN(C(=O)c2ccccn2)C3)cc1	> 200 µM	> 200 µM	> 200 µM
O=C(Nc1n[nH]c2ncc(Br)cc12)c1ccco1	42 µM	43.5 µM	61.9 µM
Cc1ccc(C(=O)Nc2n[nH]c3ncc(Br)cc23)cc1	> 200 µM	39.8 µM	> 200 µM
COc1cc(OC)cc(C(=O)Nc2n[nH]c3c2CN(c2cccnc2C(C)=O)C3)c1	> 200 µM	107 µM	161 µM
CO[C@H](C(=O)N1Cc2[nH]nc(NC(=O)c3cc4c(c(OCc5ccccc5)c3)OCO4)c2C1)c1ccccc1	> 200 µM	> 200 µM	> 200 µM
O=C(Nc1n[nH]c2ncc(Br)cc12)c1ccc(F)cc1	50 µM	44.1 µM	> 200 µM
Cc1ccc(C(=O)Nc2n[nH]c3c2CN(C(=O)[C@@H](O)c2ccccc2)C3)cc1	82 µM	13 µM	42 µM
